The subject of one experiment is HeLa. Put plainly: Inhibitory concentration against human cervical carcinoma cell line at 48 hours. Format: functional, cell-based.
Experiment [1] is described as follows: Inhibitory concentration against human esophagus cancer cell line at 72 hours. As to conditions: cancer cell lines. Format: functional, cell-based.

≈ marks a conversion by molar mass, not a printed value.

6 compounds from ChEMBL document CHEMBL1142649, “Asymmetric synthesis of novel tetrahydroquinoline derivatives with a sugar building block and their bioactivities” (Bioorg Med Chem Lett, 2005) can be followed below.

What is called IC50 is the midpoint of a concentration-inhibition curve. Low values mean higher potency, high ones lower potency.

In the case of `O[C@@H]1COC2C1OCC21Nc2ccccc2[C@]2(Nc3ccccc3)C3OC[C@@H](O)C3OC12` (some centres not stated), the IC50 (in the experiment on HeLa; in experiment [1]) was more than 1000 µg/mL in each case.

With `Cc1ccc(N[C@]23c4cc(C)ccc4NC4(COC5C4OC[C@H]5O)C2OC2C3OC[C@H]2O)cc1` (some centres not stated), the IC50 is more than 1000 µg/mL in the experiment on HeLa and 240 µg/mL (≈ 514 µM) in experiment [1].

Take `Oc1ccc(NC23c4cc(O)ccc4NC4(COC5C4OC[C@H]5O)C2OC2C3OC[C@H]2O)cc1` (some centres not stated): the figures for the IC50 (in the experiment on HeLa; in experiment [1]) were more than 1000 µg/mL and 78 µg/mL (≈ 166 µM), respectively.

In the case of `CC(=O)O[C@@H]1COC2C1OCC21Nc2ccc(C)cc2[C@]2(Nc3ccc(C)cc3)C3OC[C@@H](OC(C)=O)C3OC12` (some centres not stated), the IC50 in the experiment with HeLa was 150 µg/mL (≈ 272 µM); in experiment [1], 135 µg/mL (≈ 245 µM).

As to `COc1ccc(N[C@]23c4cc(OC)ccc4NC4(COC5[C@H](O)CO[C@@H]54)C2OC2C3OC[C@H]2O)cc1` (some centres not stated), the IC50 was 648 µg/mL (≈ 1300 µM) in the experiment on HeLa and more than 1000 µg/mL in experiment [1].

`Cc1cccc(NC23c4ccc(C)cc4NC4(COC5C4OC[C@H]5O)C2O[C@H]2C3OC[C@H]2O)c1` (some centres not stated): the results for the IC50 (in the experiment on HeLa; in experiment [1]) were 276 µg/mL (≈ 592 µM) and 95 µg/mL (≈ 204 µM), respectively.
